Experimental data published in patent US11135234B2, “Effective aminoglycoside antibiotic for multidrug-resistant bacteria” (MICROBIAL CHEMISTRY RESEARCH FOUNDATION, priority 2015, dated 2021).
Values after ≈ are worked out from the molar mass of the structure shown.

What was measured:
S. aureus RN4220 = experiment: MIC, agar plate dilution method, S. aureus RN4220; assay type: cell-based, Staphylococcus aureus; details: Staphylococcus aureus, RN4220, S. aureus RN4220, Sensitive bacterium, read-out: minimal inhibitory concentration (MIC)
How it was run: (§1)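 Strains were tested on agar plates containing diluted compound, and the MIC (μg/mL) was recorded according to the Japan Society of Chemotherapy protocol.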

S. aureus MF490 = experiment: MIC, agar plate dilution method, S. aureus MF490; assay type: cell-based, Staphylococcus aureus; details: Staphylococcus aureus, MRSA, read-out: minimal inhibitory concentration (MIC)
How it was run: as §1

P. aeruginosa MSC01035 = experiment: MIC, agar plate dilution method, P. aeruginosa MSC01035; assay type: cell-based, Pseudomonas aeruginosa; details: Pseudomonas aeruginosa, P. aeruginosa MSC01035, ABK-resistant, read-out: minimal inhibitory concentration (MIC)
How it was run: as §1

P. aeruginosa PAO1 = experiment: MIC, agar plate dilution method, P. aeruginosa PAO1; assay type: cell-based, Pseudomonas aeruginosa; details: Pseudomonas aeruginosa, PAO1, P. aeruginosa PAO1, Sensitive bacterium, read-out: minimal inhibitory concentration (MIC)
How it was run: as §1

P. aeruginosa PAO1/GN315 = experiment: MIC, agar plate dilution method, P. aeruginosa PAO1/GN315; assay type: cell-based, Pseudomonas aeruginosa; details: Pseudomonas aeruginosa, read-out: minimal inhibitory concentration (MIC), P. aeruginosa PAO1/GN315, AMK-resistant
How it was run: as §1

[1] = tested on: K. pneumoniae ATCC BAA-2146; experiment: MIC, agar plate dilution method, K. pneumoniae ATCC BAA-2146; assay type: cell-based, Klebsiella pneumoniae; details: Klebsiella pneumoniae, ATCCBAA2146, K. pneumoniae ATCC BAA-2146, NDM-producing strain, read-out: minimal inhibitory concentration (MIC)
How it was run: as §1

S. aureus RN4220/pMS520 = experiment: MIC, agar plate dilution method, S. aureus RN4220/pMS520; assay type: cell-based, Staphylococcus aureus; details: Staphylococcus aureus, MRSA, read-out: minimal inhibitory concentration (MIC), S. aureus RN4220/pMS520, MRSA
How it was run: as §1

S. marcescens GN6944 = experiment: MIC, agar plate dilution method, S. marcescens GN6944; assay type: cell-based, Serratia marcescens; details: Serratia marcescens, S. marcescens GN6944, GM-resistant, read-out: minimal inhibitory concentration (MIC)
How it was run: as §1

P. aeruginosa MSC17707 = experiment: MIC, agar plate dilution method, P. aeruginosa MSC17707; assay type: cell-based, Pseudomonas aeruginosa; details: for MIC: Pseudomonas aeruginosa, MSC17707, P. aeruginosa MSC17707, AMK-resistant, read-out: minimal inhibitory concentration (MIC)
How it was run: as §1

S. marcescens TH-0447 = experiment: MIC, agar plate dilution method, S. marcescens TH-0447; assay type: cell-based, Serratia marcescens; details: Serratia marcescens, TH0447, S. marcescens TH-0447, AMK-resistant, read-out: minimal inhibitory concentration (MIC)
How it was run: as §1

E. faecium ATCC19434 = experiment: MIC, agar plate dilution method, E. faecium ATCC19434; assay type: cell-based, Enterococcus faecium; details: Enterococcus faecium, ATCC19434, E. faecium ATCC19434, read-out: minimal inhibitory concentration (MIC)
How it was run: as §1

E. coli JM109/pMW218 = experiment: MIC, agar plate dilution method, E. coli JM109/pMW218; assay type: cell-based, Escherichia coli; details: Escherichia coli, JM109/PMW218, E. coli JM109/pMW218, Sensitive bacterium, read-out: minimal inhibitory concentration (MIC)
How it was run: as §1

[2] = tested on: K. pneumoniae ATCC BAA-1705; experiment: MIC, agar plate dilution method, K. pneumoniae ATCC BAA-1705; assay type: cell-based, Klebsiella pneumoniae; details: Klebsiella pneumoniae, ATCCBAA1705, K. pneumoniae ATCC BAA-1705, KPC-producing strain, read-out: minimal inhibitory concentration (MIC)
How it was run: as §1

[3] = tested on: A. baumannii ATCC BAA-1710; experiment: MIC, agar plate dilution method, A. baumannii ATCC BAA-1710; assay type: cell-based, Acinetobacter baumannii; details: Acinetobacter baumannii, ATCCBAA1710, A. baumannii ATCC BAA-1710, MDRA, read-out: minimal inhibitory concentration (MIC)
How it was run: as §1

| Structure (SMILES) | MIC (S. aureus RN4220) [µg/mL] | MIC (S. aureus MF490) [µg/mL] | MIC (P. aeruginosa MSC01035) [µg/mL] | MIC (P. aeruginosa PAO1) [µg/mL] | MIC (P. aeruginosa PAO1/GN315) [µg/mL] | MIC [1] [µg/mL] | MIC (S. aureus RN4220/pMS520) [µg/mL] | MIC (S. marcescens GN6944) [µg/mL] | minimal inhibitory concentration (MIC) (P. aeruginosa MSC17707; P. aeruginosa MSC17707, AMK-resistant) [µg/mL] | MIC (S. marcescens TH-0447) [µg/mL] | MIC (E. faecium ATCC19434) [µg/mL] | MIC (E. coli JM109/pMW218) [µg/mL] | MIC [2] [µg/mL] | MIC [3] [µg/mL] | MIC (P. aeruginosa MSC17707) [µg/mL] |
| --- | --- | --- | --- | --- | --- | --- | --- | --- | --- | --- | --- | --- | --- | --- | --- |
| CNC1C(O[C@H]2OC(CO)[C@@H](NC(=O)CN)[C@H](O)C2O)O[C@H]2CC(N)[C@@H](O[C@@H]3C(N)C[C@@H](N)C(O)[C@H]3O)OC2C1O (single isomer, unassigned) [Compound V1-i, 5-epi-4″-N-glycylapramycin] | 2 (≈ 3.35 µM) | 8 (≈ 13.4 µM) | 4 (≈ 6.7 µM) | 2 (≈ 3.35 µM) | 4 (≈ 6.7 µM) | 1 (≈ 1.68 µM) | 2 (≈ 3.35 µM) | 8 (≈ 13.4 µM) | 2 (≈ 3.35 µM) | 8 (≈ 13.4 µM) | 16 (≈ 26.8 µM) | 1 (≈ 1.68 µM) | 2 (≈ 3.35 µM) | 4 (≈ 6.7 µM) |  |
| CNC1C(O[C@H]2OC(CO)[C@@H](NC(=O)CCN)[C@H](O)C2O)O[C@H]2C[C@H](N)[C@@H](O[C@@H]3C(N)C[C@@H](N)C[C@H]3O)OC2C1O (stereo partly drawn) [Compound V1-q, 4″-N-(β-alanyl)-6-deoxy-5-epiapramycin] | 1 (≈ 1.68 µM) | 4 (≈ 6.73 µM) | 4 (≈ 6.73 µM) | 2 (≈ 3.36 µM) | 4 (≈ 6.73 µM) | 1 (≈ 1.68 µM) | 1 (≈ 1.68 µM) | 4 (≈ 6.73 µM) |  | 8 (≈ 13.5 µM) | 8 (≈ 13.5 µM) | 1 (≈ 1.68 µM) | 1 (≈ 1.68 µM) | 4 (≈ 6.73 µM) | 2 (≈ 3.36 µM) |
| CNC1C(O[C@H]2OC(CO)[C@@H](N)[C@H](N)C2O)O[C@H]2CC(N)[C@@H](O[C@@H]3C(N)C[C@@H](N)C(O)[C@H]3O)OC2C1O (some centres unmarked) [Compound G8, 3″-amino-3″-deoxyapramycin] | 8 (≈ 14.9 µM) | 32 (≈ 59.4 µM) | 16 (≈ 29.7 µM) | 8 (≈ 14.9 µM) | 16 (≈ 29.7 µM) | 4 (≈ 7.43 µM) | 8 (≈ 14.9 µM) | 16 (≈ 29.7 µM) |  | 16 (≈ 29.7 µM) | 32 (≈ 59.4 µM) | 2 (≈ 3.71 µM) | 4 (≈ 7.43 µM) | 16 (≈ 29.7 µM) | 16 (≈ 29.7 µM) |
| CNC1C(O[C@H]2OC(CO)[C@@H](NC(=N)N)[C@H](O)C2O)O[C@H]2CC(N)[C@@H](O[C@@H]3C(N)C[C@@H](N)C(O)[C@H]3O)OC2C1O (some centres unmarked) [Compound A4-j, 4″-deamino-4″-guanidinoapramycin] | 2 (≈ 3.44 µM) | 8 (≈ 13.8 µM) | 8 (≈ 13.8 µM) | 4 (≈ 6.88 µM) | 8 (≈ 13.8 µM) | 1 (≈ 1.72 µM) | 2 (≈ 3.44 µM) | 4 (≈ 6.88 µM) |  | 8 (≈ 13.8 µM) | 16 (≈ 27.5 µM) | 1 (≈ 1.72 µM) | 2 (≈ 3.44 µM) | 8 (≈ 13.8 µM) | 8 (≈ 13.8 µM) |
| CNC1C(O[C@H]2OC(CF)[C@@H](N)[C@H](O)C2O)O[C@H]2CC(N)[C@@H](O[C@@H]3C(N)C[C@@H](N)C(O)[C@H]3O)OC2C1O (some centres unmarked) [Compound J4, 6″-deoxy-6″-fluoroapramycin] | 8 (≈ 14.8 µM) | 16 (≈ 29.5 µM) | 16 (≈ 29.5 µM) | 8 (≈ 14.8 µM) | 8 (≈ 14.8 µM) | 2 (≈ 3.69 µM) | 4 (≈ 7.39 µM) | 16 (≈ 29.5 µM) |  | 16 (≈ 29.5 µM) | 32 (≈ 59.1 µM) | 2 (≈ 3.69 µM) | 2 (≈ 3.69 µM) | 32 (≈ 59.1 µM) | 16 (≈ 29.5 µM) |
| CNC1C(O[C@H]2OC(CO)[C@@H](NC(=O)[C@H](O)CN)[C@H](O)C2O)O[C@H]2C[C@H](N)[C@@H](O[C@@H]3C(N)C[C@@H](N)C(O)[C@H]3O)OC2C1O (stereo partly drawn) [Compound V1-s, 5-epi-4″-N-(D-isoseryl)apramycin] | 1 (≈ 1.6 µM) | 4 (≈ 6.38 µM) | 4 (≈ 6.38 µM) | 1 (≈ 1.6 µM) | 2 (≈ 3.19 µM) | 1 (≈ 1.6 µM) | 1 (≈ 1.6 µM) | 4 (≈ 6.38 µM) |  | 8 (≈ 12.8 µM) | 16 (≈ 25.5 µM) | 0.5 (≈ 0.798 µM) | 0.5 (≈ 0.798 µM) | 4 (≈ 6.38 µM) | 2 (≈ 3.19 µM) |
| CNC1C(O[C@H]2OC(CO)[C@@H](NCCCN)[C@H](O)C2O)O[C@H]2CC(N)[C@@H](O[C@@H]3C(N)C[C@@H](N)C[C@H]3O)OC2C1O (some centres unmarked) [Compound S1-n, 6-deoxy-4″-N-(3-aminopropyl)-5-epiapramycin] | 2 (≈ 3.44 µM) | 8 (≈ 13.8 µM) | 4 (≈ 6.89 µM) | 4 (≈ 6.89 µM) | 4 (≈ 6.89 µM) | 1 (≈ 1.72 µM) | 2 (≈ 3.44 µM) | 4 (≈ 6.89 µM) |  | 4 (≈ 6.89 µM) | 8 (≈ 13.8 µM) | 1 (≈ 1.72 µM) | 1 (≈ 1.72 µM) | 4 (≈ 6.89 µM) | 8 (≈ 13.8 µM) |
